In the supplement of paper PMC10307832:

Columns and labels:
Assay in all cases: relative viability (nuclei count vs DMSO), 5 days (fraction); higher = more cells survive
BAM7 + Luminespib = compound: CCOC1=CC=CC=C1N=NC2=C(NN(C2=O)C3=NC(=CS3)C4=CC=CC=C4)C [BAM7] + CCNC(=O)c1noc(-c2cc(C(C)C)c(O)cc2O)c1-c1ccc(CN2CCOCC2)cc1 [Luminespib] (partner 0.01 µM)
Outline: (§1)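 Nuclei were stained with Hoechst during a one-step fixation (final 0.05% Triton X-100, 1% formaldehyde, 1 ug/ml Hoechst) carried out 5 days after dosing, then counted on 4× images. The cells, lung cancer lines in 1536-well plates, had been dosed by pin tool the day after seeding with one drug alone or a fixed anchor-drug dose plus five library-drug doses (not always all listed) in √10 steps. Relative viability is the nuclei count in treated wells divided by that in vehicle wells, and each value is the median of duplicate plates.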

[1] = compound: CCn1c(-c2nonc2N)nc2c(C#CC(C)(C)O)ncc(OC[C@H]3CCCNC3)c21 + NC(=O)Nc1cc(-c2cccc(F)c2)sc1C(=O)N[C@H]1CCCNC1 [AZD7762] (partner 0.2 µM)
Outline: as §1

BAM7 + Pictilisib = compound: CCOC1=CC=CC=C1N=NC2=C(NN(C2=O)C3=NC(=CS3)C4=CC=CC=C4)C [BAM7] + CS(=O)(=O)N1CCN(Cc2cc3nc(-c4cccc5[nH]ncc45)nc(N4CCOCC4)c3s2)CC1 [Pictilisib] (partner 1 µM)
Outline: as §1

[2] = compound: CCn1c(-c2nonc2N)nc2c(C#CC(C)(C)O)ncc(OC[C@H]3CCCNC3)c21 + COc1cccc2cc(-c3nc([C@H]4CC[C@H](C(=O)O)CC4)n4ncnc(N)c34)[nH]c12 [OSI-027] (partner 0.5 µM)
Outline: as §1

Cell Line	relative viability (BAM7 + Luminespib; first compound 0.5 µM)	relative viability (BAM7 + Luminespib; first compound 5 µM)	relative viability (BAM7 + Luminespib; first compound 15.81 µM)	relative viability (BAM7 + Luminespib; first compound 50 µM)	relative viability ([1]; first compound 0.01 µM)	relative viability ([1]; first compound 0.03162 µM)	relative viability ([1]; first compound 0.1 µM)	relative viability ([1]; first compound 0.3162 µM)	relative viability ([1]; first compound 1 µM)	relative viability (BAM7 + Pictilisib; first compound 0.5 µM)	relative viability (BAM7 + Pictilisib; first compound 5 µM)	relative viability (BAM7 + Pictilisib; first compound 15.81 µM)	relative viability (BAM7 + Pictilisib; first compound 50 µM)	relative viability ([2]; first compound 0.01 µM)	relative viability ([2]; first compound 0.03162 µM)	relative viability ([2]; first compound 0.1 µM)	relative viability ([2]; first compound 0.3162 µM)	relative viability ([2]; first compound 1 µM)
LU99A	0.251	0.316	0.207	0.247	0.345	0.363	0.379	0.297	0.378	0.32	0.315	0.398	0.353	0.284	0.298	0.283	0.267	0.282
LXF-289	0.756	0.686	0.628	0.665	1.2	1.15	1.11	1.06	1.1	0.892	0.844	0.766	0.786	0.778	0.779	0.808	0.759	0.804
NCI-H23	0.218	0.249	0.225	0.206	0.222	0.268	0.228	0.208	0.265	0.55	0.52	0.499	0.542	0.679	0.612	0.606	0.638	0.597
NCI-H322M	0.876	0.966	0.903	0.93	0.591	0.661	0.562	0.516	0.625	0.53	0.623	0.549	0.578	0.479	0.496	0.45	0.42	0.483
NCI-H358	0.382	0.283	0.376	0.49	0.478	0.386	0.684	0.518	0.512	0.296	0.366	0.327	0.359	0.723	0.822	0.692	0.445	0.373
NCI-H441	0.411	0.326	0.381	0.351	1.11	1.17	1	0.988	1.1	0.433	0.47	0.528	0.519	0.675	0.67	0.466	0.469	0.437
NCI-H460	0.0323	0.0283	0.029	0.0339	0.633	0.649	0.575	0.636	0.618	0.439	0.485	0.411	0.381	0.579	0.784	0.588	0.535	0.548
NCI-H596	0.848	0.956	0.951	1.18	1.18		1.12	1.21	1.06	0.372	0.455	0.399	0.35	0.618	0.789	0.663	0.668	0.645
NCI-H647	0.241	0.18	0.191	0.146	0.433	0.437	0.45	0.423	0.486	0.49	0.511	0.478	0.541	0.579	0.652	0.615	0.419	0.687
NCI-H650	0.73	1.03	0.755	0.917	0.948	1.05	0.998	0.878	1.08	0.893	1.03	0.896	0.77	0.412	0.39	0.495	0.463	0.441
NCI-H727	0.215		0.345	0.33	0.586	0.6	0.768	0.631	0.576	0.414	0.545	0.387	0.31	0.617	0.58	0.535	0.551	0.528
NCI-H838	0.359	0.292	0.346	0.328	0.957	1.02	0.988	0.855	0.9	0.487	0.421	0.449	0.441	0.354	0.406	0.367	0.401	0.428
NCI-H1355	0.697	0.754	0.637	0.707	0.768	0.762	0.827	0.625	0.743	0.462	0.41	0.384	0.435	0.451	0.379	0.378	0.393	0.424
NCI-H1395	0.713	0.929	0.514	0.673	0.379	0.329	0.433	0.368	0.389	0.612	0.714	0.702	0.683	0.496	0.597	0.552	0.556	0.555
NCI-H1437	1.16	1.13	1.12	1.09	1.03	1.17	1.18	1.08	0.953	0.722	0.434	0.318	0.63	0.815	0.951	0.885	0.758	0.897
NCI-H1651	0.761	0.836	0.853	0.734	0.401	0.472	0.454	0.447	0.337	0.497	0.64	0.7	0.541	0.719	0.676	0.723	0.563	0.9
NCI-H1666	1	0.953	1.03	1.03	0.806	0.827	0.839	0.804	0.876	0.404	0.617	0.352	0.587	0.776	0.777	0.835	0.693	0.722
NCI-H1734	0.215	0.202	0.171	0.211	0.66	0.581	0.452	0.548	0.504	0.477	0.496	0.451	0.482	0.574	0.632	0.538	0.478	0.382

Cell Line	relative viability (BAM7 + Luminespib; first compound 0.5 µM)	relative viability (BAM7 + Luminespib; first compound 5 µM)	relative viability (BAM7 + Luminespib; first compound 15.81 µM)	relative viability (BAM7 + Luminespib; first compound 50 µM)	relative viability ([1]; first compound 0.01 µM)	relative viability ([1]; first compound 0.03162 µM)	relative viability ([1]; first compound 0.1 µM)	relative viability ([1]; first compound 0.3162 µM)	relative viability ([1]; first compound 1 µM)	relative viability (BAM7 + Pictilisib; first compound 0.5 µM)	relative viability (BAM7 + Pictilisib; first compound 5 µM)	relative viability (BAM7 + Pictilisib; first compound 15.81 µM)	relative viability (BAM7 + Pictilisib; first compound 50 µM)	relative viability ([2]; first compound 0.01 µM)	relative viability ([2]; first compound 0.03162 µM)	relative viability ([2]; first compound 0.1 µM)	relative viability ([2]; first compound 0.3162 µM)	relative viability ([2]; first compound 1 µM)
NCI-H1755	0.431	0.495	0.525	0.524	0.501	0.418	0.382	0.406	0.425	0.454	0.409	0.366	0.415	0.704	0.697	0.704	0.69	0.638
NCI-H1792	0.501	0.46	0.421	0.509	0.761	1.01	0.794	0.612	0.602	0.282	0.258	0.228	0.289	0.739		0.696	0.715	0.842
NCI-H1793	0.172	0.153	0.201	0.17	0.45	0.716		0.412	0.411	0.445	0.3	0.317	0.358	0.279	0.29	0.232	0.251	0.252
NCI-H1915	0.769	0.886	0.833	0.76	0.699	0.698	0.672	0.648	0.607	1.01	1.15	0.898	1.04	0.625	0.648	0.573	0.629	0.652
NCI-H1944	0.762	0.789	0.617	0.855	0.682	0.47	0.596	0.513	0.654	0.344	0.384	0.332	0.346	0.367	0.403	0.434	0.37	0.401
NCI-H1975	0.206	0.219	0.209	0.189	0.663	0.694	0.811	0.695	0.641	0.29	0.259		0.283	0.747	0.824	0.616	0.57	0.6
NCI-H1993	0.81	0.869	0.744	0.702	0.836	0.954	0.923	0.738	0.725	0.82	0.896	0.778	0.879	0.579	0.537	0.525	0.546	0.549
NCI-H2085	0.436	0.376	0.503	0.372	0.966	0.982	1.01	0.954	1	0.388	0.43	0.365	0.439	0.84	0.895	0.806	0.72	0.656
NCI-H2087	0.183	0.216	0.18	0.172	1.31		1.13	1.35	1.42	1.09	1.1	0.989	0.893	0.479	0.522	0.652	0.477	0.467
NCI-H2126	0.891	0.86	0.76	0.954	0.995	0.982	1	1.02	1.04	0.514	0.448	0.507	0.479	0.749	0.69	0.675	0.624	0.677
NCI-H2170	0.752	0.686	0.544	0.624	0.756	0.947	0.86	0.84	0.941	0.268	0.3	0.271	0.314	0.733	0.715	0.766	0.66	0.679
NCI-H2347	0.592	0.416		0.516	0.612	0.738	0.636	0.63	0.562	0.639	0.746	0.598	0.913	0.419	0.42		0.466	0.336
NCI-H2405	0.868	0.77	0.824	0.68	0.773	0.77	0.792	0.731	0.721	0.438	0.557	0.449	0.538	0.646	0.647	0.597	0.612	0.612
NCI-H3122	0.0898	0.13	0.0656	0.0782	1.01	1.03	0.997	0.975	1.04	0.75	0.689	0.685	0.694	0.875	0.913	0.791	0.317	0.4
PC-3 [JPC-3]	0.683	0.771	0.612	0.636	0.724		0.796	0.692	0.859	0.693	0.736	0.612	0.631	0.786	0.699	0.808	0.736	0.682
PC-14	0.208	0.16	0.152	0.143	0.31	0.285	0.356	0.31	0.342	0.775	1.02	0.598	0.656	0.706	0.968	0.797	0.499	0.613
RERF-LC-KJ	1.19	0.93	0.726	0.759	1	1.07	0.949	0.867	1.05	0.551	0.496	0.492	0.515	0.497	0.564	0.526	0.446	0.395
